The record followed here is patent US20220273605A1, “COMPOSITIONS AND METHODS FOR TREATMENT OF PRESBYOPIA” (priority 2019, published 2022).

The test system of the experiment is rabbits. Briefly: Effect on pupil diameter in rabbit animal model (change from baseline). In kind it is in vivo. The conditions noted are these: for reduction from baseline pupil diameter: dose of 1.25% w/w. The procedure:
Dose solutions with concentration range of 0.25% to 4% pilocarpine were prepared and dosed in rabbits. The effect on pupil diameter was measured and recorded as the change from baseline.
Dose solutions with concentration range of 0.03% to 3% carbachol were prepared and dosed in rabbits. The effect on pupil diameter was measured and recorded as the change from baseline. […] The expected efficacious range of carbachol resulting in the aforementioned pupil size reduction would correspond to approximately 0.1 to 1% w/w carbachol (FIG. 2).

Regarding `CC[C@@H]1C(=O)OC[C@@H]1Cc1cncn1C` [pilocarpine], the “reduction from baseline pupil diameter” value runs as follows: (over 0.5 to 2 hours) 20-30%; (up to 3 hours) “approximately 10%”.

Consider `C[N+](C)(C)CCOC(N)=O.[Cl-]` [carbachol, carbamoylcholine chloride], for which the “dose that most closely matches the optimum dose response measured for pilocarpine” value (20-30% pupil diameter reduction over 0.5 to 2 hours, about 10% up to 3 hours, tested 0.03% to 3%) is “approximately 0.6 % w/w”.
